Reference: patent US8283361B2 (AstraZeneca AB, priority 2008, dated 2012)
“And” between values parts separate entries of the source, which are not always exact repeats. Identical values can stand only once. Counter-ions that a name gives are not always drawn.

These molecules were tested against S. aureus GyrB ATPase (Staphylococcus aureus, UniProt P0A0K8) (assay: biochemical). Settings: compound at 1 μM; one value per test if tested more than once; 1 µM.
How it was run: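 IC50 values derive from 10-point titrations of compound (in DMSO). Phosphate formed from 250 μM ATP was quantified by acidic molybdate/malachite green after quenching.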

Chain of S. aureus GyrB ATPase (P0A0K8 whole entry): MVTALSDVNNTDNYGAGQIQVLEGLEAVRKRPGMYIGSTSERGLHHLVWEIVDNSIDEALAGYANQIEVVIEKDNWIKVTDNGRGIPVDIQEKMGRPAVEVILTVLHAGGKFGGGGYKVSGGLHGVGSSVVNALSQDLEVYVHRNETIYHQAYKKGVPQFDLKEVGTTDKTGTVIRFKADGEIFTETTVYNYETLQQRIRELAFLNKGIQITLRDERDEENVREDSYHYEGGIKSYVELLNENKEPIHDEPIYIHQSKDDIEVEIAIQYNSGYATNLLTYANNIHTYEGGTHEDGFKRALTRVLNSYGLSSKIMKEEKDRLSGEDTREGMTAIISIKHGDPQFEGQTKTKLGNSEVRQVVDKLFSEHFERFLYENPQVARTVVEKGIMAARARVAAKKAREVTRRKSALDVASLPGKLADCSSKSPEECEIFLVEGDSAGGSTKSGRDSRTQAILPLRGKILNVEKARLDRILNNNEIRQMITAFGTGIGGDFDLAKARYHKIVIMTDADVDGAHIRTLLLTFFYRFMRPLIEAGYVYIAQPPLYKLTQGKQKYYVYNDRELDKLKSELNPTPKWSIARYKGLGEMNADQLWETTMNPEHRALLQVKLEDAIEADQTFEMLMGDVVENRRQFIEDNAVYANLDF
Chain of S. aureus GyrB ATPase (P0AES4 whole entry, further chain): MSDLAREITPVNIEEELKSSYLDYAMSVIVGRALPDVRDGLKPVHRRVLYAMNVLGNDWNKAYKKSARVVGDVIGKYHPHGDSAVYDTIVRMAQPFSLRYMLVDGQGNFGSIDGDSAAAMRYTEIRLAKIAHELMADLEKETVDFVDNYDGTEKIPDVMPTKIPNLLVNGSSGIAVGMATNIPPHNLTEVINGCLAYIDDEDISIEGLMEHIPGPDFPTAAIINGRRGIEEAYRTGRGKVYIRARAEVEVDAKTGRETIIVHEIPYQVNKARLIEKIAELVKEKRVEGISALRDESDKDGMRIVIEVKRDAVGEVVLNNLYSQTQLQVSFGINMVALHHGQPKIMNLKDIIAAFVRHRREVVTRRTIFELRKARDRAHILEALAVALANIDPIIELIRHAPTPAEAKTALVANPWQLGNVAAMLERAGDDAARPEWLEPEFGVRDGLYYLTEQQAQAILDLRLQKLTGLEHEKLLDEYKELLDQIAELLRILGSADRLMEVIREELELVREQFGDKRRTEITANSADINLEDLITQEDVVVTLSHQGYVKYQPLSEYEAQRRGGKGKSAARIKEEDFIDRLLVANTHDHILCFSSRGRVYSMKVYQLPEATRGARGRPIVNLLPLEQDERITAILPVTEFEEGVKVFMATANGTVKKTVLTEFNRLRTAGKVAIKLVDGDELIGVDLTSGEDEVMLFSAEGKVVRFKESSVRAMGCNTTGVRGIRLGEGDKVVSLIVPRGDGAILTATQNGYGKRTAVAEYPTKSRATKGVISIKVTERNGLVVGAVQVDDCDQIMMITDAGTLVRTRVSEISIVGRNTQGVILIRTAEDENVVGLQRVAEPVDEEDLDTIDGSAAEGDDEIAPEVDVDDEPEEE

SMILES	% Inhibition of S. aureus GyrB ATPase
CCNC(=O)Nc1cc(-c2nc(C(F)(F)F)cs2)c(-c2ccc3c(c2)c(=O)c(C(=O)O)cn3CC2COCCN2)cn1 (stereo not shown) [Example 294]	109%
CCNC(=O)Nc1cc(-c2nc(C(F)(F)F)cs2)c(-c2ccc3c(c2)c(=O)c(C(=O)O)cn3CC2CCN(CCN3CCOCC3)C2)cn1 (stereo not shown) [Example 306, 6-(6-(3-ethylureido)-4-(4-(trifluoromethyl)thiazol-2-yl)pyridin-3-yl)-1-((1-(2-morpholinoethyl)pyrrolidin-3-yl)methyl)-4-oxo-1,4-dihydroquinoline-3-carboxylic acid]	100% and 102%

Same assay, conditions: compound at 1 μM; one value per test if tested more than once; read-out: % Inhibition of S. aureus GyrB ATPase

SMILES	inhibition at 1 µM
CCNC(=O)Nc1cc(-c2nc(C(F)(F)F)cs2)c(-c2ccc3c(c2)c(=O)c(C(=O)O)cn3[C@@H]2CCCN(CC)C2)cn1 [Example 252, (R)-1-(1-ethylpiperidin-3-yl)-6-(6-(3-ethylureido)-4-(4-(trifluoromethyl)thiazol-2-yl)pyridin-3-yl)-4-oxo-1,4-dihydroquinoline-3-carboxylic acid]	105%
CCNC(=O)Nc1cc(-c2nc(C(F)(F)F)cs2)c(-c2ccc3c(c2)c(=O)c(C(=O)O)cn3CC(C)N(C)C)cn1 (stereo not shown) [Example 277, 1-(2-(dimethylamino)propyl)-6-(6-(3-ethylureido)-4-(4-(trifluoromethyl)thiazol-2-yl)pyridin-3-yl)-4-oxo-1,4-dihydroquinoline-3-carboxylic acid]	103%
CCNC(=O)Nc1cc(-c2nc(C(F)(F)F)cs2)c(-c2ccc3c(c2)c(=O)c(C(=O)O)cn3[C@@H]2CCCC[C@H]2O)cn1 [Example 278, 6-(6-(3-ethylureido)-4-(4-(trifluoromethyl)thiazol-2-yl)pyridin-3-yl)-1-((1R,2R)-2-hydroxycyclohexyl)-4-oxo-1,4-dihydroquinoline-3-carboxylic acid]	101%
CCNC(=O)Nc1cc(-c2nc(C(F)(F)F)cs2)c(-c2ccc3c(c2)c(=O)c(C(=O)O)cn3[C@H]2CCCC[C@@H]2O)cn1 [Example 279, 6-(6-(3-ethylureido)-4-(4-(trifluoromethyl)thiazol-2-yl)pyridin-3-yl)-1-((1S,2S)-2-hydroxycyclohexyl)-4-oxo-1,4-dihydroquinoline-3-carboxylic acid]	103%
CCNC(=O)Nc1cc(-c2nc(C(F)(F)F)cs2)c(-c2ccc3c(c2)c(=O)c(C(=O)O)cn3[C@H]2CCCN(CCS(C)(=O)=O)C2)cn1 [Example 280, (S)-ethyl 6-(6-(3-ethylureido)-4-(4-(trifluoromethyl)thiazol-2-yl)pyridin-3-yl)-1-(1-(2-(methylsulfonyl)ethyl)piperidin-3-yl)-4-oxo-1,4-dihydroquinoline-3-carboxylic acid]	103%
CCNC(=O)Nc1cc(-c2nc(C(F)(F)F)cs2)c(-c2ccc3c(c2)c(=O)c(C(=O)O)cn3[C@@H]2CCCN(CCS(C)(=O)=O)C2)cn1 [Example 281, (R)-ethyl 6-(6-(3-ethylureido)-4-(4-(trifluoromethyl)thiazol-2-yl)pyridin-3-yl)-1-(1-(2-(methylsulfonyl)ethyl)piperidin-3-yl)-4-oxo-1,4-dihydroquinoline-3-carboxylic acid]	106%
CCNC(=O)Nc1cc(-c2nc(C(F)(F)F)cs2)c(-c2ccc3c(c2)c(=O)c(C(=O)O)cn3[C@@H]2CCCN(Cc3cccn3C)C2)cn1 [Example 282, (R)-ethyl 6-(6-(3-ethylureido)-4-(4-(trifluoromethyl)thiazol-2-yl)pyridin-3-yl)-1-(1-((1-methyl-1H-pyrrol-2-yl)methyl)piperidin-3-yl)-4-oxo-1,4-dihydroquinoline-3-carboxylic acid]	105%
CCNC(=O)Nc1cc(-c2nc(C(F)(F)F)cs2)c(-c2ccc3c(c2)c(=O)c(C(=O)O)cn3[C@H]2CCCN(Cc3cccn3C)C2)cn1 [Example 283, (S)-ethyl 6-(6-(3-ethylureido)-4-(4-(trifluoromethyl)thiazol-2-yl)pyridin-3-yl)-1-(1-((1-methyl-1H-pyrrol-2-yl)methyl)piperidin-3-yl)-4-oxo-1,4-dihydroquinoline-3-carboxylic acid]	102%
CCNC(=O)Nc1cc(-c2nc(C(F)(F)F)cs2)c(-c2ccc3c(c2)c(=O)c(C(=O)O)cn3[C@H]2CCCN(CCN3CCOCC3)C2)cn1 [Example 284, (S)-ethyl 6-(6-(3-ethylureido)-4-(4-(trifluoromethyl)thiazol-2-yl)pyridin-3-yl)-1-(1-(2-morpholinoethyl)piperidin-3-yl)-4-oxo-1,4-dihydroquinoline-3-carboxylic acid]	107%
CCNC(=O)Nc1cc(-c2nc(C(F)(F)F)cs2)c(-c2ccc3c(c2)c(=O)c(C(=O)O)cn3[C@@H]2CCCN(CCN3CCOCC3)C2)cn1 [Example 285, (R)-ethyl 6-(6-(3-ethylureido)-4-(4-(trifluoromethyl)thiazol-2-yl)pyridin-3-yl)-1-(1-(2-morpholinoethyl)piperidin-3-yl)-4-oxo-1,4-dihydroquinoline-3-carboxylic acid]	105%
CCNC(=O)Nc1cc(-c2nc(C(F)(F)F)cs2)c(-c2ccc3c(c2)c(=O)c(C(=O)O)cn3[C@@H]2CCCN(CC(C)(C)C)C2)cn1 [Example 286]	102%
CCNC(=O)Nc1cc(-c2nc(C(F)(F)F)cs2)c(-c2ccc3c(c2)c(=O)c(C(=O)O)cn3[C@H]2CCCN(CCN(CC)CC)C2)cn1 [Example 287, (S)-ethyl 1-(1-(2-(diethylamino)ethyl)piperidin-3-yl)-6-(6-(3-ethylureido)-4-(4-(trifluoromethyl)thiazol-2-yl)pyridin-3-yl)-4-oxo-1,4-dihydroquinoline-3-carboxylic acid trifluoroacetate]	100%
CCNC(=O)Nc1cc(-c2nc(C(F)(F)F)cs2)c(-c2ccc3c(c2)c(=O)c(C(=O)O)cn3[C@@H]2CCCN(CCN(CC)CC)C2)cn1 [Example 288, (S)-ethyl 1-(1-(2-(diethylamino)ethyl)piperidin-3-yl)-6-(6-(3-ethylureido)-4-(4-(trifluoromethyl)thiazol-2-yl)pyridin-3-yl)-4-oxo-1,4-dihydroquinoline-3-carboxylic acid trifluoroacetate]	99%
CCNC(=O)Nc1cc(-c2nc(C(F)(F)F)cs2)c(-c2ccc3c(c2)c(=O)c(C(=O)O)cn3[C@H]2CCCN(CC(C)(C)CN3CCOCC3)C2)cn1 [Example 289, (S)-1-(1-(2,2-dimethyl-3-morpholinopropyl)piperidin-3-yl)-6-(6-(3-ethylureido)-4-(4-(trifluoromethyl)thiazol-2-yl)pyridin-3-yl)-4-oxo-1,4-dihydroquinoline-3-carboxylic acid]	103%
CCNC(=O)Nc1cc(-c2nc(C(F)(F)F)cs2)c(-c2ccc3c(c2)c(=O)c(C(=O)O)cn3[C@@H]2CCCN(CC(C)(C)CN3CCOCC3)C2)cn1 [Example 290, (R)-1-(1-(2,2-dimethyl-3-morpholinopropyl)piperidin-3-yl)-6-(6-(3-ethylureido)-4-(4-(trifluoromethyl)thiazol-2-yl)pyridin-3-yl)-4-oxo-1,4-dihydroquinoline-3-carboxylic acid]	100%
CCNC(=O)Nc1cc(-c2nc(C(F)(F)F)cs2)c(-c2ccc3c(c2)c(=O)c(C(=O)O)cn3[C@H]2CCCN(CCO)C2)cn1 [Example 291, (S)-6-(6-(3-ethylureido)-4-(4-(trifluoromethyl)thiazol-2-yl)pyridin-3-yl)-1-(1-(2-hydroxyethyl)piperidin-3-yl)-4-oxo-1,4-dihydroquinoline-3-carboxylic acid]	107%
CCNC(=O)Nc1cc(-c2nc(C(F)(F)F)cs2)c(-c2ccc3c(c2)c(=O)c(C(=O)O)cn3[C@@H]2CCCN(CCO)C2)cn1 [Example 292, (R)-6-(6-(3-ethylureido)-4-(4-(trifluoromethyl)thiazol-2-yl)pyridin-3-yl)-1-(1-(2-hydroxyethyl)piperidin-3-yl)-4-oxo-1,4-dihydroquinoline-3-carboxylic acid]	102%
CCNC(=O)Nc1cc(-c2nc(C(F)(F)F)cs2)c(-c2ccc3c(c2)c(=O)c(C(=O)O)cn3CC2COCCN2)cn1 (stereo not shown) [Example 293]	106%
CCNC(=O)Nc1cc(-c2nc(C(F)(F)F)cs2)c(-c2ccc3c(c2)c(=O)c(C(=O)O)cn3CC2CCN(CC)C2)cn1 (stereo not shown) [Example 305, 1-((1-ethylpyrrolidin-3-yl)methyl)-6-(6-(3-ethylureido)-4-(4-(trifluoromethyl)thiazol-2-yl)pyridin-3-yl)-4-oxo-1,4-dihydroquinoline-3-carboxylic acid]	103%
CCNC(=O)Nc1cc(-c2nc(C(F)(F)F)cs2)c(-c2ccc3c(c2)c(=O)c(C(=O)O)cn3CC2CCN(CCN3CCOCC3)C2)cn1 (stereo not shown) [Example 306, 6-(6-(3-ethylureido)-4-(4-(trifluoromethyl)thiazol-2-yl)pyridin-3-yl)-1-((1-(2-morpholinoethyl)pyrrolidin-3-yl)methyl)-4-oxo-1,4-dihydroquinoline-3-carboxylic acid]	105%
CCNC(=O)Nc1cc(-c2nc(C(F)(F)F)cs2)c(-c2ccc3c(c2)c(=O)c(C(=O)O)cn3CC2CCN(CC3CCCO3)C2)cn1 (stereo not shown) [Example 307, 6-(6-(3-ethylureido)-4-(4-(trifluoromethyl)thiazol-2-yl)pyridin-3-yl)-4-oxo-1-((1-((tetrahydrofuran-2-yl)methyl)pyrrolidin-3-yl)methyl)-1,4-dihydroquinoline-3-carboxylic acid]	105%
CCNC(=O)Nc1cc(-c2nc(C(F)(F)F)cs2)c(-c2ccc3c(c2)c(=O)c(C(=O)O)cn3CC2CCN(CCO)C2)cn1 (stereo not shown) [Example 308, 6-(6-(3-ethylureido)-4-(4-(trifluoromethyl)thiazol-2-yl)pyridin-3-yl)-1-((1-(2-hydroxyethyl)pyrrolidin-3-yl)methyl)-4-oxo-1,4-dihydroquinoline-3-carboxylic acid hydrochloride]	111%
CCNC(=O)Nc1cc(-c2nc(C(F)(F)F)cs2)c(-c2ccc3c(c2)c(=O)c(C(=O)O)cn3C2CCCN(Cc3ccncc3)C2)cn1 (stereo not shown) [Example 309, 6-(6-(3-ethylureido)-4-(4-(trifluoromethyl)thiazol-2-yl)pyridin-3-yl)-4-oxo-1-(1-(pyridin-4-ylmethyl)piperidin-3-yl)-1,4-dihydroquinoline-3-carboxylic acid]	109%
